Here are results for 1 compound from ChEMBL document CHEMBL4433252, “Bypassing lantibiotic resistance by an effective nisin derivative” (Bioorg Med Chem, 2019).

≈ marks a conversion by molar mass, not a printed value. Calls of active or inactive are those of the source. The rule behind the calls is not given here.

Assay [1] deals with Enterococcus faecalis. Description: Potency index, ratio of MIC for nisin to MIC for test compound for antibacterial activity against Enterococcus faecalis ATCC 29212 assessed as reduction in cell viability incubated overnight. The format is functional.
Assay [2] relates to Lactococcus lactis. Description: Growth inhibition of Lactococcus lactis NZ9000 transfected with pNZ-Erm plasmid incubated for 5 hrs by spectrophotometry. The format is functional, organism-based. The note with it: NZ9000, 5 h.
Assay [3] has as its system Lactococcus lactis. Description: Resistance index, ratio of IC50 for growth inhibition of Lactococcus lactis NZ9000 transfected with Streptococcus agalactiae COH1 NSR S236A mutant incubated for 5 hrs by spectrophotometry to IC50 for growth inhibition of Lactococcus lactis NZ9000 transfected with pNZ-Erm plasmid incubated for 5 hrs by spectrophotometry. The format is functional.

The test system of assay [4] is Staphylococcus aureus. Description: Potency index, ratio of MIC for nisin to MIC for test compound for antibacterial activity against Staphylococcus aureus ATCC 29213 assessed as reduction in cell viability incubated overnight. The format is functional.
In assay [5] the test system is Enterococcus faecalis. Description: Antibacterial activity against Enterococcus faecalis ATCC 29212 assessed as reduction in cell viability incubated overnight. The format is functional.
For assay [6], the system named is Lactococcus lactis. The experiment in a line: Resistance index, ratio of IC50 for growth inhibition of Lactococcus lactis NZ9000 transfected with Streptococcus agalactiae COH1 NSR incubated for 5 hrs by spectrophotometry to IC50 for growth inhibition of Lactococcus lactis NZ9000 transfected with pNZ-Erm plasmid incubated for 5 hrs by spectrophotometry. The format is functional.

The test system of assay [7] is Lactococcus lactis. The experiment in a line: Growth inhibition of Lactococcus lactis NZ9000 transfected with Streptococcus agalactiae COH1 NSR S236A mutant incubated for 5 hrs by spectrophotometry. The format is functional, organism-based. To be noted: NZ9000, 5 h.
Assay [8] has as its system Staphylococcus aureus. The experiment in a line: Antibacterial activity against Staphylococcus aureus ATCC 29213 assessed as reduction in cell viability incubated overnight. The format is functional.
In assay [9] the test system is Lactococcus lactis. Description: Growth inhibition of Lactococcus lactis NZ9000 transfected with Streptococcus agalactiae COH1 NSR incubated for 5 hrs by spectrophotometry. The format is functional, organism-based. The note with it: NZ9000, 5 h.
Assay [10] deals with Lactococcus lactis. Description: Induction of pore formation in Lactococcus lactis NZ9000 transfected with Streptococcus agalactiae COH1 NSR assessed as increase in florescence intensity at 30 nM measured after 100 secs by sytox green-based fluorescence assay. The format is functional, organism-based.

As for `C=C(NC(=O)[C@@H](NC(=O)[C@H](Cc1cnc[nH]1)NC(=O)[C@@H](NC(=O)[C@H](CO)NC(=O)[C@@H]1CCCN1C(=O)[C@H](Cc1cnc[nH]1)NC(=O)[C@@H]1CS[C@@H](C)[C@H](NC(=O)[C@H](CCCCN)NC(=O)[C@H](CCSC)NC(=O)[C@H](CC(N)=O)NC(=O)[C@@H]2CS[C@@H](C)[C@H](NC(=O)[C@H](CCCCN)NC(=O)[C@@H]3CS[C@@H](C)[C@H](NC(=O)[C@@H]4CSC[C@H](NC(=O)/C(=C/C)NC(=O)[C@@H](N)[C@@H](C)CC)C(=O)N[C@@H]([C@@H](C)CC)C(=O)NC(=C)C(=O)N[C@@H](CC(C)C)C(=O)N4)C(=O)N4CCC[C@H]4C(=O)NCC(=O)N3)C(=O)NCC(=O)N[C@@H](C)C(=O)N[C@@H](CC(C)C)C(=O)N[C@@H](CCSC)C(=O)NCC(=O)N2)C(=O)N[C@@H](C)C(=O)N[C@@H](CC)C(=O)N1)[C@@H](C)CC)C(C)C)C(=O)N[C@@H](CCCCN)C(=O)O`, the Ratio in the assay on Enterococcus faecalis [1] and in the assay with Staphylococcus aureus [4] was 7.8 throughout. Moreover, the IC50 in the assay on Lactococcus lactis [2] amounted to 5.5 nM; in the assay with Lactococcus lactis [7], 24.1 nM; in the assay on Lactococcus lactis [9], 22.5 nM. The “Ratio IC50” value in the assay with Lactococcus lactis [3] and in the assay with Lactococcus lactis [6] was 3.5 throughout. For the same compound, the MIC in the assay on Enterococcus faecalis [5] and with Staphylococcus aureus [8] was 10.6 µM (≈ 35.6 µg/mL) in each case. For the same compound, the outcome in the assay on Lactococcus lactis [10] was Active.
